In brackets after ≈: the same amount, converted by molar mass. Where two headings read alike, the source gives them in different places. Where a SMILES comes first, the peptide text is derived from it. [ ]: non-standard residue; d: D form. The star is where a group is joined. Levofloxacinoyl = C[C@H]1COc2c(N3CCN(C)CC3)c(F)cc3c(=O)c(C(=O)*)cn1c23
Experiments:
B. subtilis (ATCC 23857) = assay: Antibacterial broth microdilution MIC assay; format: cell-based, Bacillus subtilis; details: >99% inhibition of growth, MH broth, 20-22 h, 37 °C
Procedure: (§1) The antibacterial activity of peptide analogs was tested against different bacterial strains, i.e., Salmonella enterica subsp. enterica serotype Typhimurium or Salmonella typhi (ATCC 14028), Staphylococcus aureus (NCTC 13277), Bacillus subtilis (ATCC 23857), Escherichia coli (ATCC 25922), and Pseudomonas aeruginosa (ATCC 10145). These strains were obtained from the microbial bank of Dr. Panjwani Center for Molecular Medicine and Drug research (PCMD), International Center for Chemical and Biological Sciences (ICCBS), University of Karachi. Colonies of these bacterial strains were grown in respective agar media, then inoculated in Mueller Hinton (MH) broth (Oxoid, UK) and incubated at 37 °C overnight. The peptide solutions were first diluted 1 in 100 (from the stock solution at 20 mM) and then further two-fold dilution in MH broth in a sterile 96-well plate was performed, resulting in 100 µL of broth containing increasing concentrations of analogs. Bacteria in their exponential growth phase were diluted in MH broth, and 100 µL of this suspension was added in each well. […] Then, these plates were incubated at 37 °C for 20–22 h. MIC (Minimum Inhibitory Concentration) values were determined as the concentrations of peptides causing >99% inhibition of bacterial growth.

[1] = tested on: human cervical cancer (HeLa) cells; assay: cells; format: cell-based
Procedure: (§2) Human breast cancer (MCF-7) and human cervical cancer (HeLa) cells were obtained from the cell culture bank of PCMD in ICCBS, University of Karachi. These cells were maintained in Dulbecco’s Modified Eagle Medium (DMEM), supplemented with 10% fetal bovine serum, and incubated at 37 °C and 5% CO2. The antiproliferative activity of the samples was determined by a MTT assay. Briefly, the cells were washed with PBS and trypsinized. After determination of the cell number using Malassez cell counting, 100 µL of the cell suspension were seeded in a 96-well plate at the density of 6000 cells/well and incubated at 37 °C and 5% CO2. After 24 h, the cells were treated with increasing concentrations of analogs. The next day, media was removed and 200 µL of MTT dye (0.5 mg/mL) was added in each well and incubated for 3 h at 37 °C in 5% CO2 incubator. Then, the media was removed and 100 µL of DMSO was added to solubilize formazan crystals. After one minute of shaking, the absorbance was recorded at 540 nm in microplate reader (Multiskan GO, ThermoScientific, Waltham, MA, USA). Finally, the percent inhibition of proliferation was calculated using the following formula: % inhibition of proliferation=O.D of treated well−O.D of media control/O.D of untreated control−O.D of media control×100

[2] = tested on: Human breast cancer (MCF-7) cells; assay: cells; format: cell-based
Procedure: as §2

E. coli (ATCC 25922) = assay: Antibacterial broth microdilution MIC assay; format: cell-based, Escherichia coli; details: >99% inhibition of growth, MH broth, 20-22 h, 37 °C
Procedure: as §1

[3] = tested on: P. aeruginosa (ATCC 10145); assay: Antibacterial broth microdilution MIC assay; format: cell-based, Pseudomonas aeruginosa; details: >99% inhibition of growth, MH broth, 20-22 h, 37 °C
Procedure: as §1

S. typhi (ATCC 14028) [4] = tested on: S. typhi (ATCC 14028)
S. aureus (NCTC 13277) [5] = details: >99% inhibition of growth, MH broth, 20-22 h, 37 °C
[6] = tested on: human red blood cells (RBC); details: previously reported; cited from earlier work
[7] = tested on: human red blood cells (RBC); assay: Hemolytic assay; format: cell-based
Procedure: For the hemolytic assay, fresh human blood (2 mL) was obtained from a healthy donor in EDTA tube while following the protocol of approval from the Independent Ethics Committee of ICCBS (approval number ICCBS/IEC-047-HB-2019/Protocol/1.0). The blood was centrifuged and upper supernatant plasma was removed. The cell pellets were washed with sterile PBS three times. The washed blood cells were then diluted 25 times to make 4% concentration of the initial blood cells. Red blood cells (500 µL) were treated with increasing concentrations of analogs, with triton X-100 at 0.1% being used as positive control giving 100% hemolysis. After 1 h of incubation at 37 °C, tubes were centrifuged at 800 rpm for 5 min to pellet down red blood cells. After centrifugation, 200 µL of supernatant were transferred into a 96 well plate and the absorbance was recorded at 576 nm using a microplate reader (MultiSkan Go, ThermoScientific). Then, the following formula was applied to calculate percent hemolysis: % Hemolysis=O.D of test sample−O.D of PBS control/O.D of Tritox×positive control−O.D of PBS control×100

C. albicans (ATCC 36082) = assay: microbe, parasite or virus in culture
Procedure: Candida albicans (ATCC 36082) was cultured on Sabourad Dextrose Agar (SDA). A single colony was inoculated in Sabouraud Dextrose Broth (SDB) medium and grown overnight at 37 °C while shaking. The next day, the susceptibility of C. albicans was tested using a broth microdilution assay. Peptide analogs were diluted in SDB media by two-fold dilution, resulting in 100 µL of medium containing increasing concentrations of analogs. The overnight culture (turbidity at OD600 = 1) was 1000× diluted in SDB. Then 100 µL of this suspension was added to each well, resulting in a final 200 µL suspension containing 2–4 × 10^5 CFU/mL. The plate was incubated at 37 °C for 24 h. The next day, MIC (Minimum Inhibitory Concentration) values were determined as the concentrations of peptides causing > 99% inhibition of yeast growth.

S. typhi (ATCC 14028) [8] = assay: microbe, parasite or virus in culture; details: Salmonella enterica, read-out: MIC S. typhi (ATCC 14028)
S. aureus (NCTC 13277) [9] = assay: microbe, parasite or virus in culture; details: Staphylococcus aureus, NCTC13277, read-out: MIC S. aureus (NCTC 13277)
[10] = tested on: cancer cells (MCF-7, HeLa); set-up: species or system human
Procedure: The selectivity of action of the analogs against micro-organisms or cancer cells was further evaluated through calculation of their selectivity indexes (SIs). SIs were determined using either the MIC on micro-organisms or IC50 on cancer cells compared to HC50 values, and they are reported in Table 6.

E. coli = assay: Atomic force microscopy imaging of treated bacteria; format: cell-based, Escherichia coli; details: 2XMIC, overnight, tapping mode
Procedure: (§3) Different bacteria (S. typhi, E. coli, and P. aeruginosa) adjusted to 2–3 × 10^7 CFU/mL were treated with 2XMIC values of analogs and incubated overnight at 37 °C. The next day, the bacteria were washed, dispersed in sterile pure grade water, dispensed in poly-L-lysine-coated mica slides, and left for air drying. Changes in the morphology of the bacteria were studied with an atomic force microscope (Agilent 5500, Chandler, AZ, USA). The whole analysis was carried out in tapping mode. Images were collected and optimized at a scan velocity of 1–5 µm/s and 512 × 512-line resolution and processed through PicoView 1.2 imaging software.

[11] = Circular dichroism secondary structure analysis (Bestsel) in 20 mM SDS; format: physicochemical; details: CD, 15 µM peptide in 20 mM SDS, 22 °C
Procedure: The far-ultraviolet circular dichroism (CD) spectra were recorded using a JASCO J-810 spectropolarimeter (Jasco, Tokyo, Japan), with measurements taken in a quartz cuvette with a 10 mm path length. The temperature was kept at 22 °C, and the instrument was calibrated with D-(+)-10-camphorsulfonic acid. Peptides were dissolved in 20 mM SDS to a final concentration of 15 µM. The CD spectra were collected over a wavelength range of 190 to 260 nm with a bandwidth of 2 nm. Each spectrum was recorded with ten consecutive scans at a rate of 50 nm/min, and the baseline was obtained under identical conditions. Secondary structures, i.e., the percentage of alpha-helix and other secondary structures, were quantified from CD data using Bestsel software (https://bestsel.elte.hu/index.php, accessed on 22 October 2024).

P. aeruginosa = assay: Atomic force microscopy imaging of treated bacteria; format: cell-based, Pseudomonas aeruginosa; details: 2XMIC, overnight, tapping mode
Procedure: as §3

[12] = MTT, 24 h exposure, read-out: IC50 on Cervical Cancer (HeLa)

CC[C@H](C)[C@H](NC(=O)[C@@H](C)NC(=O)[C@H](CO)NC(=O)[C@H](CC(C)C)NC(=O)[C@@H](N)Cc1ccccc1)C(=O)N[C@H](C(=O)NCC(=O)N[C@@H](CCSC)C(=O)N[C@@H](CC(C)C)C(=O)NCC(=O)N[C@@H](CCCCN)C(=O)N[C@@H](CC(C)C)C(=O)N[C@@H](Cc1ccccc1)C(N)=O)C(C)C [NST-2 (1), H-Phe^1-Leu^2-Ser^3-D-Ala^4-Ile^5-Val^6-Gly^7-Met^8-Leu^9-Gly^10-Lys^11-Leu^12-Phe^13-NH2] (H-FLS[dA]IVGMLGKLF-NH2)
MIC (B. subtilis (ATCC 23857)): 6.25 µM (≈ 8.72 µg/mL)
IC50 [1, 12]: > 100 µM
IC50 ([2]; lowest IC50 on cancer cells = MCF-7 (peptides 1, 2, 7), from Table 5, read-out: Lower IC50): 17.9 µM
MIC (E. coli (ATCC 25922)): 125 µM (≈ 174 µg/mL)
MIC [3]: >250 µM
MIC S. typhi (ATCC 14028) (S. typhi (ATCC 14028) [4]; ATCC 14028): 250 µM (≈ 349 µg/mL)
MIC S. aureus (NCTC 13277) (S. aureus (NCTC 13277) [5]): 14.34 µM (≈ 20 µg/mL)
hemolysis HC50 [6]: 90.0 µM
HC50 on Human Red Blood Cells (RBCs) ([7]; 1 h, 37 °C, 0.1% triton X-100 = 100% hemolysis): 90.0 µM
MIC C. albicans (ATCC 36082) (C. albicans (ATCC 36082); >99% inhibition of yeast growth, SDB, 24 h, 37 °C): 20 µM (≈ 27.9 µg/mL)

C[C@H]1COc2c(N3CCN(C)CC3)c(F)cc3c(=O)c(C(=O)O)cn1c23 [Levofloxacin, reference compound]
MIC (B. subtilis (ATCC 23857); Bacillus subtilis, ATCC23857): 0.39 µM (≈ 0.141 µg/mL)
IC50 ([1]; Homo sapiens, HeLa, MTT, 24 h exposure, read-out: IC50 on Cervical Cancer (HeLa)): > 100 µM
IC50 ([2]; Homo sapiens, MCF7, MTT, 24 h exposure, read-out: IC50 on Breast Cancer (MCF-7)): > 100 µM
MIC (S. typhi (ATCC 14028) [8]): 0.39 µM (≈ 0.141 µg/mL)
MIC (S. aureus (NCTC 13277) [9]): 25 µM (≈ 9.03 µg/mL)
MIC (E. coli (ATCC 25922); Escherichia coli, ATCC25922): 0.78 µM (≈ 0.282 µg/mL)
MIC ([3]; Pseudomonas aeruginosa, ATCC10145): 1.56 µM (≈ 0.564 µg/mL)
HC50 on Human Red Blood Cells (RBCs) ([7]; human, 1 h): >100 µM
MIC (C. albicans (ATCC 36082); Candida albicans, ATCC36082, 24 h, read-out: MIC C. albicans (ATCC 36082)): > 250 µM

CC[C@H](C)[C@H](NC(=O)[C@@H](NC(=O)CNC(=O)[C@H](CCSC)NC(=O)[C@H](CC(C)C)NC(=O)CNC(=O)[C@H](CCCCN)NC(=O)[C@H](CC(C)C)NC(=O)[C@@H](N)Cc1ccccc1)C(C)C)C(=O)N[C@H](C)C(=O)N[C@@H](CO)C(=O)N[C@@H](CC(C)C)C(=O)N[C@@H](Cc1ccccc1)C(=O)N[C@@H](CCCCNC(=O)c1cn2c3c(c(N4CCN(C)CC4)c(F)cc3c1=O)OC[C@@H]2C)C(N)=O [RLFP-1 (4), H-Phe^1-Leu^2-Lys^3-Gly^4-Leu^5-Met^6-Gly^7-Val^8-Ile^9-D-Ala^10-Ser^11-Leu^12-Phe^13-Lys^14(LF)-NH2] (H-FLKGLMGVI[dA]SLFK(Levofloxacinoyl)-NH2)
MIC (B. subtilis (ATCC 23857)): 50 µM (≈ 93.3 µg/mL)
IC50 ([1]; 24 h): > 100 µM
IC50 ([2]; 24 h): > 100 µM
MIC (E. coli (ATCC 25922)): >200 µM
MIC [3]: >200 µM
IC50 [10]: > 100 µM
MIC S. typhi (ATCC 14028) (S. typhi (ATCC 14028) [4]; ATCC 14028): 25 µM (≈ 46.7 µg/mL)
MIC S. aureus (NCTC 13277) (S. aureus (NCTC 13277) [5]): 50 µM (≈ 93.3 µg/mL)
HC50 on Human Red Blood Cells (RBCs) [7]: 98.6 µM
HC50 on Human Red Blood Cells (RBCs) ([7]; red cells of human, 1 h): 98.9 µM
MIC C. albicans (ATCC 36082) (C. albicans (ATCC 36082); ATCC 36082, 24 h): >250 µM

CC[C@H](C)[C@H](NC(=O)[C@@H](NC(=O)CNC(=O)[C@H](CCSC)NC(=O)[C@H](CC(C)C)NC(=O)CNC(=O)[C@H](CCCCN)NC(=O)[C@H](CC(C)C)NC(=O)[C@@H](N)Cc1ccccc1)C(C)C)C(=O)N[C@H](C)C(=O)N[C@@H](CO)C(=O)N[C@@H](CC(C)C)C(=O)N[C@@H](Cc1ccccc1)C(=O)N[C@@H](CCCCN)C(N)=O [RSP-1 (3), H-Phe^1-Leu^2-Lys^3-Gly^4-Leu^5-Met^6-Gly^7-Val^8-Ile^9-D-Ala^10-Ser^11-Leu^12-Phe^13-Lys^14-NH2] (H-FLKGLMGVI[dA]SLFK-NH2)
MIC (B. subtilis (ATCC 23857)): 1.56 µM (≈ 2.38 µg/mL)
IC50 [1, 12]: 33.5 µM
IC50 ([2]; 24 h): 42.7 µM
AFM morphology of E. coli after treatment (E. coli): significant damages to the bacteria
Antiparallel (%) [11]: 18.2%
Helix (%) [11]: 81.8%
Others (%) [11]: 0.00%
Parallel (%) [11]: 0.00%
Turn (%) [11]: 0.00%
MIC (E. coli (ATCC 25922)): 25 µM (≈ 38.1 µg/mL)
MIC [3]: 50 µM (≈ 76.1 µg/mL)
MIC S. typhi (ATCC 14028) (S. typhi (ATCC 14028) [4]; >99% inhibition of growth, MH broth, 20-22 h, 37 °C): 50 µM (≈ 76.1 µg/mL)
MIC S. aureus (NCTC 13277) (S. aureus (NCTC 13277) [5]): 6.25 µM (≈ 9.52 µg/mL)
AFM morphology of P. aeruginosa after treatment (P. aeruginosa): significant damages to the bacteria
HC50 on Human Red Blood Cells (RBCs) ([7]; red cells of human, 1 h): 51.0 µM
MIC C. albicans (ATCC 36082) (C. albicans (ATCC 36082); ATCC 36082, 24 h): 15.6 µM (≈ 23.8 µg/mL)
